Each structure is given as a SMILES string. Some results are limits rather than exact numbers.

The subject of data set [1] is T1, TRKB.
T1 construct: ETV6 (1-336)-NTRK2 kinase domain (455-822) fusion expressed in Ba/F3
The experiment in a line: cells. Also noted: species or system Ba/F3; CellTiter-Glo anti-proliferation of Ba/F3 cells transformed with ETV6-NTRK fusions. To be noted: Mus musculus, BaF3, 72 h, read-out: LOXO195 GI50. How it is done:
(§1) To obtain the GI50 value of a substance, cell viability was measured using MTT (G4000, Promega, USA) for KM12(Luc) cell and Cell titer glo (G7572, Promega, USA) for other cell lines. For adherent cells, cells were seeded at 5,000 cells/well in a 96-well plate and treated with a substance one day after cell seeding. For suspension cells, 10,000 cells/well were seeded and the substance was treated after 4 h stabilization of cells. The substance was treated at 10 points of 1:3 serial dilution (0–100 µmol/L) for 72 h. For MTT assay, 15 µL dye solution was added to each well and incubated 4 h at 37°C. 100 µL of solubilization solution was added and followed 1 hr incubation. Absorbance at 570 nm of each well was recorded using EnVision microplate reader (Perkin Elmer). For Cell titer glo assay, Cell titer glo reagent was treated in each well and measured the luminescence by EnVision microplate reader (Perkin Elmer). Viable cells in each well were normalized by using 0.5% DMSO-treated wells (100%). The inhibitor dose−response curve was fitted and GI50 values were calculated using Prism 7.0 software (GraphPad). All assays were performed in duplicate and the standard deviation (SD) was determined from two independent experiments. To investigate the inhibitory activity of AZD4547 against clinically relevant TRK mutants which have resistance to the known TRK inhibitors ([8], [44]), we established Ba/F3 cell lines harboring the ETV6-NTRKs fusion genes (NTRK1, NTRK1G595R, NTRK1G667A, NTRK1G667C, NTRK1G667S and NTRK2) ( Supplementary Figure 2 ). The mutation status of each established cell line was confirmed by sequencing of its cDNA ( Supplementary Figure 2 ). The anti-proliferation activity of AZD4547 was then measured in each cell line ( Figure 2A and Table S2 ). […] However, AZD4547 has no inhibitory activity against Ba/F3 harboring clinically relevant TRKs mutants including TRKA G595R, TRKA G667S, TRKA G667C and TRKA G667A. We next evaluated if AZD4547 is capable of suppressing the phosphorylation of TRKA/B in Ba/F3 cell lines ( Figure 2B ). […] Also, phosphorylation of TRKA/B is almost completely abolished using 1 µM of AZD4547. […] (A) Summary of GI50s of AZD4547 against Ba/F3: TRKA mutants or TRKB. Cell viability after 72 h exposure to the indicated inhibitors, determined by using a cell titer glo assay in duplicate mode. Data was plotted as mean GI50 ± SD of two independent experiments. (B) AZD4547 inhibits phosphorylation of TRKA/B and PLC-gamma in Ba/F3 harboring TRKA and TRKB, respectively. […] Data are representative of three independent experiments.

Data set [2] deals with T2, TRKA G667A.
T2 construct: ETV6 (1-336)-NTRK1 kinase domain (434-790) fusion expressed in Ba/F3
As to the kind of experiment: cells. Also noted: species or system Ba/F3; CellTiter-Glo anti-proliferation of Ba/F3 cells transformed with ETV6-NTRK fusions. The settings on record: Mus musculus, BaF3, 72 h, read-out: LOXO195 GI50. How it is done:
as §1

The test system of data set [3] is T3, TRKA G595R.
T3 construct: ETV6 (1-336)-NTRK1 kinase domain (434-790) fusion expressed in Ba/F3
As to the kind of experiment: cells. Also noted: species or system Ba/F3; CellTiter-Glo anti-proliferation of Ba/F3 cells transformed with ETV6-NTRK fusions. To be noted: Mus musculus, BaF3, 72 h, read-out: LOXO195 GI50. The method, then:
as §1

Data set [4] concerns T4, TRKA G667C.
T4 construct: ETV6 (1-336)-NTRK1 kinase domain (434-790) fusion expressed in Ba/F3
As to the kind of experiment: cells. Also noted: species or system Ba/F3; CellTiter-Glo anti-proliferation of Ba/F3 cells transformed with ETV6-NTRK fusions. To be noted: Mus musculus, BaF3, 72 h, read-out: LOXO195 GI50. How it is done: as §1

The subject of data set [5] is T5, TRKA G667S.
T5 construct: ETV6 (1-336)-NTRK1 kinase domain (434-790) fusion expressed in Ba/F3
The experiment in a line: cells. Also noted: species or system Ba/F3; CellTiter-Glo anti-proliferation of Ba/F3 cells transformed with ETV6-NTRK fusions. To be noted: Mus musculus, BaF3, 72 h, read-out: LOXO195 GI50. How it is done: as §1

For data set [6], the system named is T6, TRKA.
T6 construct: ETV6 (1-336)-NTRK1 kinase domain (434-790) fusion expressed in Ba/F3
The experiment in a line: cells. To be noted: Mus musculus, BaF3, 72 h, read-out: LOXO195 GI50. Also noted: species or system Ba/F3; CellTiter-Glo anti-proliferation of Ba/F3 cells transformed with ETV6-NTRK fusions. How it is done: as §1

Data set [7] is described as follows: in vitro. Also noted: CellTiter-Glo viability of parental Ba/F3 cells, counter-screen. To be noted: mouse, parental ba/f3 cells. How it is done:
To obtain the GI50 value of a substance, cell viability was measured using MTT (G4000, Promega, USA) for KM12(Luc) cell and Cell titer glo (G7572, Promega, USA) for other cell lines. For adherent cells, cells were seeded at 5,000 cells/well in a 96-well plate and treated with a substance one day after cell seeding. For suspension cells, 10,000 cells/well were seeded and the substance was treated after 4 h stabilization of cells. The substance was treated at 10 points of 1:3 serial dilution (0–100 µmol/L) for 72 h. For MTT assay, 15 µL dye solution was added to each well and incubated 4 h at 37°C. 100 µL of solubilization solution was added and followed 1 hr incubation. Absorbance at 570 nm of each well was recorded using EnVision microplate reader (Perkin Elmer). For Cell titer glo assay, Cell titer glo reagent was treated in each well and measured the luminescence by EnVision microplate reader (Perkin Elmer). Viable cells in each well were normalized by using 0.5% DMSO-treated wells (100%). The inhibitor dose−response curve was fitted and GI50 values were calculated using Prism 7.0 software (GraphPad). All assays were performed in duplicate and the standard deviation (SD) was determined from two independent experiments. […] Cell viability after 72 h exposure to the indicated inhibitors, determined by using a cell titer glo assay in duplicate mode. […]

As usually defined, the GI50 is the concentration that inhibits growth by half. As usually defined, the CC50 is the concentration that lowers cell viability or growth by half. As to `C[C@@H]1CCc2ncc(F)cc2[C@H]2CCCN2c2ccn3ncc(c3n2)C(=O)N1` [LOXO195], the concentration for 50% growth inhibition (GI50) was […] in data set [1]; 24.1 ± 8.3 nM in data set [2]; […] in data set [3]; […] in data set [4]; 35.5 ± 2.5 nM in data set [5]; […] in data set [6]. Besides, in data set [7], the CC50 at 72 h was greater than 2000 nM.
